# Measurements as given in patent US6525021B1 (priority 1998, dated 2003).
# “Also recorded” adds a separate entry of the source. Non-standard residues stand in square brackets, D forms with d. Residues, ends and D or L forms follow the SMILES beside them. *: point of attachment. X1 = CC(=O)N[C@@H]1[C@@H](O[C@@H]2O[C@H](CO)[C@H](O)[C@H](O)[C@H]2O)[C@@H](O)[C@@H](CO)O[C@@H]1*; pGlu = O=C1CC[C@@H](C(=O)O)N1
# Experiments:
# [1] = target: human neurotensin type 1 receptor (hNTR1) (Homo sapiens, UniProt P30989); experiment: biochemical; assay type: binding
# [2] = target: rat neurotensin type 1 receptor (rNTR1) (Rattus norvegicus, UniProt P20789); experiment: biochemical; assay type: binding
# [3] = target: rat neurotensin type 2 receptor (rNTR2) (Rattus norvegicus, UniProt Q63384); experiment: biochemical; assay type: binding
# [4] = target: solubilized mouse neurotensin type 3 receptor (mNTR3) (Mus musculus, UniProt Q6PHU5); experiment: biochemical; assay type: binding
# [5] = target: rNTR1 (Rattus norvegicus, UniProt P20789); experiment: cell-based; assay type: cell-based
# [6] = target: rNTR2 (Rattus norvegicus, UniProt Q63384); assay type: cell-based
# [7] = parameters: species or system mice; settings: mouse, in vivo
# Chain of rNTR1 (P20789 whole entry, looked up): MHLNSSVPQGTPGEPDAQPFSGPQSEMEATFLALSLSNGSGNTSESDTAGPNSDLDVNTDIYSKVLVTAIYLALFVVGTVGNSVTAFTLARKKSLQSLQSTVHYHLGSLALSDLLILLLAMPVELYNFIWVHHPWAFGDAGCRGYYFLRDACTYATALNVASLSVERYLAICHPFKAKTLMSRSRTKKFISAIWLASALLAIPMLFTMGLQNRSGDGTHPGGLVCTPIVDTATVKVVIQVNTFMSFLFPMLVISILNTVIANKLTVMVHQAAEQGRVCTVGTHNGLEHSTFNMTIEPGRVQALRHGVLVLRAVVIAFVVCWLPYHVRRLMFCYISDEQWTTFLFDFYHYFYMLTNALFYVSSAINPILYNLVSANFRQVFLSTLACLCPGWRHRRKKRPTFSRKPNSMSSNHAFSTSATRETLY
# Chain of rNTR2 (Q63384 whole entry, looked up): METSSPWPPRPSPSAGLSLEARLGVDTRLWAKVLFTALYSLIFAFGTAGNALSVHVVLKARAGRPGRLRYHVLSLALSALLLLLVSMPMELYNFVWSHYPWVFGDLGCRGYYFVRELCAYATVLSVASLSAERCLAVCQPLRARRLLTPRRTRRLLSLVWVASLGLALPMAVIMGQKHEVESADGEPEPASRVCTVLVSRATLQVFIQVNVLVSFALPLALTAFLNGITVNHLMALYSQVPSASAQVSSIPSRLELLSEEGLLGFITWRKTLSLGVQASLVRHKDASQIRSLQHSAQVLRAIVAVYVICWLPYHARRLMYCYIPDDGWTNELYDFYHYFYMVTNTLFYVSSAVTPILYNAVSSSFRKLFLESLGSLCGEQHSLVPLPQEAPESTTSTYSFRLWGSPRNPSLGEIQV
# Chain of human neurotensin type 1 receptor (hNTR1) (P30989 whole entry, looked up): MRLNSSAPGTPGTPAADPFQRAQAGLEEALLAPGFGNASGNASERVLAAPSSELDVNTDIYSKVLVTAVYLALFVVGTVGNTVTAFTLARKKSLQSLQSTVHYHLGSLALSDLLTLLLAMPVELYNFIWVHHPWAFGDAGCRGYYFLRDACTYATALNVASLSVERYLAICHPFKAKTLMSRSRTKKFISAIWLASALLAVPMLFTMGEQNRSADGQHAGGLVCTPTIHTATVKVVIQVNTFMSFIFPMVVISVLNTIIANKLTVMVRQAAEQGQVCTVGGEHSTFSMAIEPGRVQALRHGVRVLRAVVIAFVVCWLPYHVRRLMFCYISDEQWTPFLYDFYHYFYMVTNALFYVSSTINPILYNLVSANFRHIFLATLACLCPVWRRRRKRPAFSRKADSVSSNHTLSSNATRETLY
# Chain of rat neurotensin type 1 receptor (rNTR1) (P20789 whole entry, looked up): as the sequence (P20789 whole entry, looked up) above
# Chain of solubilized mouse neurotensin type 3 receptor (mNTR3) (Q6PHU5 74-825 limits assumed): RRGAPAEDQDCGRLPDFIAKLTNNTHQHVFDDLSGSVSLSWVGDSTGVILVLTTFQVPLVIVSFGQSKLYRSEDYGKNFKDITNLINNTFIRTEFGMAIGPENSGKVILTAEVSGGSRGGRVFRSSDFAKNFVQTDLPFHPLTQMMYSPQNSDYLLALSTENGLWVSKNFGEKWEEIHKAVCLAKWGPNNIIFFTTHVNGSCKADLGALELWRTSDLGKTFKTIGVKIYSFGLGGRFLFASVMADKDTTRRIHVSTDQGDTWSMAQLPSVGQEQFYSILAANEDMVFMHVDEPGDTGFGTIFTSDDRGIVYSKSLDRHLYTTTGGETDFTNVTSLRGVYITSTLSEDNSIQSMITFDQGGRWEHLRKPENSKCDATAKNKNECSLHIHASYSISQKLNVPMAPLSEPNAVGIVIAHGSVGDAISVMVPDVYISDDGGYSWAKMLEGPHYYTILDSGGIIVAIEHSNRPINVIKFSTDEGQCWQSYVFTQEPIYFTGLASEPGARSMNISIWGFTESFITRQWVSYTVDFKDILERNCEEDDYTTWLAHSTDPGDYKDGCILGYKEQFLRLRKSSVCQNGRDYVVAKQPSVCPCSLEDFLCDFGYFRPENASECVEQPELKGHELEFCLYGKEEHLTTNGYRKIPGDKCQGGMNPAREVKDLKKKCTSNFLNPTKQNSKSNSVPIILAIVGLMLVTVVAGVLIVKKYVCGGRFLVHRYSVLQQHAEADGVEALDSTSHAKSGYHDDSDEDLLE
# Chain of rat neurotensin type 2 receptor (rNTR2) (Q63384 whole entry, looked up): as the sequence (Q63384 whole entry, looked up) above
Compound,IC50 [1],IC50 [2],IC50 [3],IC50 [4],EC50 [5],agonistic efficacy compared with Neurotensin1-13 [5],mode of action on CHO cells expressing the rNTR1 [5],agonist response [6],activity (onset and recovery time) compared with analog A [7],time mice were drowsy [7]
CC[C@H](C)[C@H](NC(=O)[C@H](Cc1ccc(O)cc1)NC(=O)[C@@H]1CCCN1C(=O)[C@H](CCCCN)NC(=O)[C@H](CCCCN)NC(=O)[C@@H](NC(=O)[C@H](C)NC(=O)[C@H](CC(N)=O)NC(=O)[C@H](CO)NC(=O)CNC(=O)CNC(=O)[C@H](CCC(=O)O)NC(=O)[C@H](CCC(=O)O)NC(=O)[C@H](CO)NC(=O)[C@@H]1CCC(=O)N1)[C@@H](C)O[C@H]1O[C@H](CO)[C@H](O)[C@H](O[C@@H]2O[C@H](CO)[C@H](O)[C@H](O)[C@H]2O)[C@H]1NC(C)=O)C(=O)N[C@@H](CC(C)C)C(=O)O [contulakin-G] ([pGlu]SEEGGSNAT(X1)KKPYIL-OH),960 nM,524 nM,730 nM,250 nM,20 to 30 nM,approximately half,acted as agonists,No response; also recorded: absence of any agonistic effect,,
Δ1-9-Ser10-contulakin-G containing the native glycosylation on Ser10 [analog B],,,,,,,,,same activity,100 min
